How the values were obtained:
plasma cholesterol = experiment: Cholesterol lowering in hypercholesterolemic rats; format: in vivo
[1] = Tissue distribution and pharmacokinetics following IP administration to normal rats; format: in vivo, SD rats; settings: 10 mg/kg IP
Source text: At pre-selected time points following dosing, the rats were anesthetized using iso-fluorane and the peritoneal cavity was then opened and a blood sample was obtained from the abdominal vena cava. In addition, liver, kidney, and heart were excised and immersed in 3 volumes of cold 60% acetonitrile. The blood samples were briefly centrifuged and the plasma fraction was then extracted with 1.5 volumes of methanol, processed, and analyzed by LC-UV as described in Example G. The frozen liver, kidney, and heart tissue were homogenized in 60% v/v acetonitrile, centrifuged, and then analyzed by LC-UV. Pharmacokinetic parameters and AUC of the plasma and tissue concentration-time profiles were determined noncompartmentally by WinNonLin.

In the case of `Cc1cc(OCP(=O)(O)O)cc(C)c1Cc1ccc(O)c(C(C)C)c1` [Compound 7, [3,5-dimethyl-4-(4′-hydroxy-3′-iso-propylbenzyl)phenoxy]methylphosphonic acid], the change in vivo at 0.2 mg/kg/day (plasma cholesterol; Rattus norvegicus, ip, delivered i.p (0.2 mg/kg/d), percentage change from pre-dose cholesterol, read-out: % Cholesterol Lowering) is reported as -41.5%, the “efficacy in lowering cholesterol” value (plasma cholesterol; another experiment, hypercholesterolemic rats) is reported as “efficacious” and the “Heart AUC” value [1] is reported as 32.8 nmol·h/g. The “Kidney AUC” value [1] was 5.0 nmol·h/g, the “Liver AUC” value [1] was 301.7 nmol·h/g and the AUC ([1]; male, SD, rat, plasma) was 31600 ng·h/mL. For the same compound, the Cmax ([1]; male, SD, rat, plasma) was 26000 ng/mL, the Tmax ([1]; male, SD, rat, plasma) was 20 min and the CL/F ([1]; male, SD, rat, plasma, read-out: Cl(observed)/F (converted)) was 5.01 mL/min/kg. It also gave a Vd/F ([1]; male, SD, rat, plasma, read-out: Vz(observed)/F) of 0.401 L/kg, an AUMClast ([1]; plasma) of 33.7098 μg * hr^2/mL and a Tlast ([1]; plasma) of 4 h.
